Source: patent US20100331297A1, “MODULATION OF PROTEIN TRAFFICKING” (FOLDRX PHARMACEUTICALS, INC., priority 2007, published 2010)

Each compound was assayed against ΔF508 CFTR (Homo sapiens, UniProt P13569, DEL508-508) (assay: Corrector activity, YFP halide (iodide) quenching assay in FRT cells expressing ΔF508 CFTR). Details: FRT cells ΔF508 CFTR/YFP, 24 hours with compound at 37° C., forskolin and genistein; read-out: Corrector EC50.
Format: cell-based
Set-up: expressed in transfected cells; host or cells: Fischer rat thyroid (FRT) cells
Protocol: Fisher rat thyroid (FRT) cells stably expressing ΔF508 CFTR and a halide-sensitive variant of yellow fluorescent protein (YFP) were seeded into microtiter plates and allowed to grow for 24 hours at 37° C. and 5% CO2. See Pedemonte et al., J. Clin. Invest. […] Compounds in dimethylsulfoxide (DMSO) solution were pre-diluted into cell culture medium, the medium was removed from cells, and then fresh medium containing the compounds was applied. The cells were incubated for a further 24 hours at 37° C. and 5% CO2.
Activity of CFTR was assayed by removing the medium, washing the cell monolayer with phosphate-buffered saline solution (PBS), and then applying PBS containing forskolin and genistein. After 30 min incubation at 37° C., the plates were placed in a fluorescence plate reader equipped with a reagent injector.
Corrector activity was calculated as follows. Normalized endpoint fluorescence was calculated by dividing the endpoint fluorescence after iodide injection by the initial fluorescence reading and multiplication by 100. Corrector EC50 values were calculated from the activity vs. concentration data using a 4-parameter log fit. The bottom of the curve was constrained to zero activity (DMSO control) while the slope, EC50, and top of the curve were fitted to the data. The EC50 was determined as the concentration that corresponds to the inflection point of the fitted curve.

ΔF508 CFTR, sequence (P13569 with tags, fused parts or gaps DEL508-508): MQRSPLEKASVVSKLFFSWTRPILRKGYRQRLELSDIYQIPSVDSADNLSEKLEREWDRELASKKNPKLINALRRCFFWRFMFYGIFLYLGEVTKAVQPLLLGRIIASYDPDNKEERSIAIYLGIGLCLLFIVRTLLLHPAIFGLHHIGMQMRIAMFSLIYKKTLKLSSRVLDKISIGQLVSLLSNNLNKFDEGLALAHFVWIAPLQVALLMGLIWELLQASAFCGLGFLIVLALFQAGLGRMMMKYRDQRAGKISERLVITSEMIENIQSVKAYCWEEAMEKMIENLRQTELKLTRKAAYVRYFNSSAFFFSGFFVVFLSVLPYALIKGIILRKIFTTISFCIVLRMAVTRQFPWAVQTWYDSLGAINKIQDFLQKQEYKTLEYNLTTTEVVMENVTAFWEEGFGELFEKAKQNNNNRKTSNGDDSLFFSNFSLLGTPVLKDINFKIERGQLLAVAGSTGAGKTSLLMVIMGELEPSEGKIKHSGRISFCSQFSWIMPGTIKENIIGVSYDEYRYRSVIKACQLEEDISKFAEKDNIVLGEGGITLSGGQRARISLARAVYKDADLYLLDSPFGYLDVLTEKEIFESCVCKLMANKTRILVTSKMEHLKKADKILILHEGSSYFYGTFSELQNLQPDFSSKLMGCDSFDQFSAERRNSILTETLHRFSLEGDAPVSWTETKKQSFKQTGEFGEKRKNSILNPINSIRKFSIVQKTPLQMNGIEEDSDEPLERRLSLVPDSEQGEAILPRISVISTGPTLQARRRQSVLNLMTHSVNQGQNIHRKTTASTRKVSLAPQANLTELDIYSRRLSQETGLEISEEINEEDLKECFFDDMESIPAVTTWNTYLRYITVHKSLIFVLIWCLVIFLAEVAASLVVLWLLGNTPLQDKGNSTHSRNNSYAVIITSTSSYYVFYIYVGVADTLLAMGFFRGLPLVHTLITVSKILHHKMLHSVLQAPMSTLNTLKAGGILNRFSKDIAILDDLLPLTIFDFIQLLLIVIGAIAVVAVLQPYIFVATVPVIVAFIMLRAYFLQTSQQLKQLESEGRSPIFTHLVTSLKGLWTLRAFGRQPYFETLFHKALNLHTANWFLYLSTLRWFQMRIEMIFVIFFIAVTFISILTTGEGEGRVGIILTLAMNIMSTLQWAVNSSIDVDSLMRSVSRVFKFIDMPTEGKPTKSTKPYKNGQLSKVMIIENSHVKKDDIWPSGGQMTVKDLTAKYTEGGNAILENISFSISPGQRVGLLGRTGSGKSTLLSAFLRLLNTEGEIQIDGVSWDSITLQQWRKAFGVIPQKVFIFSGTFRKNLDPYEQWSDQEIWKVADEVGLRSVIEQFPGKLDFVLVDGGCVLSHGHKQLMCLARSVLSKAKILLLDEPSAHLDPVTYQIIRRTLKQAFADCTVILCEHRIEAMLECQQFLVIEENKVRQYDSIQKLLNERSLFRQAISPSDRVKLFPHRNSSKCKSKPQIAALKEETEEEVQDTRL

Row | Compound | EC50
1 | CC(C)(C)n1cc(-c2cccc(Cl)c2)c2c(N)ncnc21 [compound 354] | > 15 µM
2 | CC(C)(C)OC(=O)N1CC(n2nc(Oc3cccc(Cl)c3)c3c(N)ncnc32)C1 [compound 357] | > 15 µM
3 | Nc1ncnc2c1c(Oc1cccc(Cl)c1)nn2C1CCOC1 (stereo not shown) [compound 358] | > 15 µM
4 | Nc1ncnc2c1c(Oc1ccccc1)nn2C1CCOC1 (stereo not shown) [compound 359] | > 15 µM
5 | CC(C)N1CC(n2nc(Sc3cccc(Cl)c3)c3c(N)ncnc32)C1 [compound 360] | > 15 µM
6 | CC1CCC(n2nc(-c3ccc(Cl)cc3)c3c(N)ncnc32)CC1 (stereo not shown) [compound 361] | > 15 µM
7 | CC(C)(C)OC(=O)N1CCC(n2nc(Oc3ccccc3)c3c(N)ncnc32)CC1 [compound 362] | > 15 µM
8 | CN1CCC(C(=O)Nc2ncnc3c2c(-c2ccc(Cl)cc2)nn3C(C)(C)C)C1 (stereo not shown) [compound 363] | > 15 µM
9 | CCn1c(C)c(-c2ccc(Cl)cc2)c2c(NC(=O)C(C)C)ncnc21 [compound 364] | < 2 µM
10 | CCn1c(C)c(-c2ccc(Cl)cc2)c2c(NC(=O)C3CCCC3)ncnc21 [compound 365] | 2 to 5 µM
11 | CC(C)C(=O)Nc1ncnc2c1c(-c1ccc(Cl)cc1)cn2C(C)(C)C [compound 366] | > 15 µM
12 | CC(C)(C)n1cc(-c2cccc(Cl)c2)c2c(NC(=O)C3CCCC3)ncnc21 [compound 367] | 5 to 10 µM
13 | CCC(=O)Nc1ncnc2c1c(-c1cccc(Cl)c1)cn2C(C)(C)C [compound 368] | 5 to 10 µM
14 | CC(C)C(=O)Nc1ncnc2c1c(Oc1cccc(Cl)c1)nn2C(C)(C)C [compound 369] | 2 to 5 µM
15 | CC(C)(C)n1nc(Oc2nccc3ccccc23)c2c(N)ncnc21 [compound 370, 1-tert-Butyl-3-(isoquinolin-1-yloxy)-1H-pyrazolo[3,4-d]pyrimidin-4-ylamine] | > 15 µM
16 | CCC(=O)Nc1ncnc2c1c(-c1ccc(Cl)cc1)cn2C(C)(C)C [compound 371] | < 2 µM
17 | CC(=O)Nc1ncnc2c1c(-c1ccc(Cl)cc1)cn2C(C)(C)C [compound 372] | 2 to 5 µM

Row | Compound | EC50
18 | CC(C)(C)n1cc(-c2ccc(Cl)cc2)c2c(NC(=O)C3CCCO3)ncnc21 (stereo not shown) [compound 373] | 5 to 10 µM
19 | CC(C)(C)n1cc(-c2ccc(Cl)cc2)c2c(NC(=O)C3CCOC3)ncnc21 (stereo not shown) [compound 374] | < 2 µM
20 | CN1CCC(C(=O)Nc2ncnc3c2c(-c2ccc(Cl)cc2)cn3C(C)(C)C)C1 (stereo not shown) [compound 375] | < 2 µM
21 | CC(C)(C)n1cc(-c2ccc(Cl)cc2)c2c(NC(=O)C3CCCO3)ncnc21 (stereo not shown) [compound 376] | 2 to 5 µM
22 | CC(C)(C)C(=O)Nc1ncnc2c1c(Oc1cccc(Cl)c1)nn2C(C)(C)C [compound 377] | > 15 µM
23 | CN1CCC(n2nc(-c3ccc(Cl)cc3)c3c(N)ncnc32)CC1 [compound 378] | > 15 µM
24 | CN1CC[C@H](n2nc(-c3ccc(Cl)cc3)c3c(N)ncnc32)C1 [compound 379] | > 15 µM
25 | CC(=O)N1CC(n2nc(Oc3cccc(Cl)c3)c3c(N)ncnc32)C1 [compound 380] | > 15 µM
26 | CCNC(=O)N1CC(n2nc(Oc3cccc(Cl)c3)c3c(N)ncnc32)C1 [compound 381] | > 15 µM
27 | CN1CC(n2nc(Sc3cccc(Cl)c3)c3c(N)ncnc32)C1 [compound 382] | > 15 µM
28 | CN1CC(n2nc(Sc3ccccc3)c3c(N)ncnc32)C1 [compound 383] | > 15 µM
29 | CC(C)N1CC(n2nc(Sc3ccccc3)c3c(N)ncnc32)C1 [compound 384] | > 15 µM
30 | CC(C)(C)OC(=O)N1CC(n2nc([S+]([O-])c3ccccc3)c3c(N)ncnc32)C1 (stereo not shown) [compound 385] | > 15 µM
31 | CCOC(=O)N1CCC(n2nc(Oc3ccccc3)c3c(N)ncnc32)CC1 [compound 386] | > 15 µM
32 | CN1CC(n2nc(Cc3cccc4ccccc34)c3c(N)ncnc32)C1 [compound 387] | > 15 µM
33 | CC(C)(C)C(=O)Nc1ncnc2c1cnn2C(C)(C)C [compound 389] | > 15 µM
34 | CC(C)C(=O)Nc1ncnc2c1cnn2C(C)(C)C [compound 390] | > 15 µM
